# Literature values, collected in US6986763B2, “Methods and compositions usable in cataract surgery” (PHACOTREAT AB, priority 2001, dated 2006).
# Tested on: lens epithelial cells
# Conditions: in vitro
row,Compound,inhibiting lens epithelial cells proliferation
1,CO[C@@]12[C@H](COC(N)=O)C3=C(C(=O)C(C)=C(N)C3=O)N1C[C@@H]1N[C@@H]12 [mitomycin],effective
2,CC(=O)O[C@H]1C(=O)[C@@]2(C)[C@H]([C@H](OC(=O)c3ccccc3)[C@]3(O)C[C@H](OC(=O)[C@H](O)[C@@H](NC(=O)c4ccccc4)c4ccccc4)C(C)=C1C3(C)C)[C@]1(OC(C)=O)CO[C@@H]1C[C@@H]2O [taxol],effective
3,COc1cccc2c1C(=O)c1c(O)c3c(c(O)c1C2=O)C[C@@](O)(C(C)=O)C[C@@H]3O[C@H]1C[C@H](N)[C@H](O)[C@H](C)O1 [daunomycin/daunorubicin],effective
4,COc1cccc2c1C(=O)c1c(O)c3c(c(O)c1C2=O)C[C@@](O)(C(=O)CO)C[C@@H]3O[C@H]1C[C@H](N)[C@H](O)[C@H](C)O1 [doxorubicin],effective
5,COc1cc2c(c(OC)c1OC)-c1ccc(OC)c(=O)cc1[C@@H](NC(C)=O)CC2 [colchicines],effective
6,CN(Cc1cnc2nc(N)nc(N)c2n1)c1ccc(C(=O)N[C@@H](CCC(=O)O)C(=O)O)cc1 [methotrexate],effective
7,O=c1[nH]cc(F)c(=O)[nH]1 [5-fluorouracil],effective

# Tested on: lens epithelial cells
# Conditions: cadaver eyes; 2% solution in irrigation solution
row,Compound,damage to the zonules
1,trypsin,the zonules were damaged

# Same assay, conditions: cadaver eyes; agent in irrigation solution
row,Compound,separation of lens epithelial cells
1,trypsin,lens epithelial cells were stripped in places
2,"O=C(O)CN(CCN(CC(=O)O)CC(=O)O)CC(=O)O [EDTA, Ethylenediamine tetraacetic acid]",the anterior lens epithelial cells could be separated
